Assay: xn = mol fraction of the nth substance listed
Conditions: 100 kPa

CC[N+]1(C)CCCC1.COP(=O)([O-])OC + CCO
viscosity [mPa·s]
Conditions | 293.15 K | 298.15 K | 303.15 K | 308.15 K | 313.15 K | 318.15 K | 323.15 K | 328.15 K | 333.15 K | 338.15 K
x1 = 0.0534 | – | 2.03 | 1.84 | 1.7 | 1.59 | 1.47 | – | 1.27 | 1.18 | –
x1 = 0.1054 | 3.4 | 3.06 | 2.75 | 2.51 | 2.31 | – | 1.96 | – | 1.71 | 1.6
x1 = 0.1535 | – | – | – | 3.68 | 3.33 | 3.06 | – | 2.61 | 2.42 | 2.23
x1 = 0.2015 | 6.75 | 6.07 | 5.35 | 4.78 | 4.33 | 3.97 | – | – | – | 2.8
x1 = 0.306 | 13.5 | – | 10.16 | 8.72 | 7.62 | 6.71 | 6.04 | 5.41 | 4.85 | 4.4
x1 = 0.4029 | 23.1 | 19.4 | 16.43 | 13.96 | 11.88 | 10.18 | 8.85 | 7.81 | 6.85 | 6
x1 = 0.5052 | 37.5 | 30.3 | 24.7 | – | 17.4 | 14.83 | 12.49 | 10.82 | 9.31 | 8
x1 = 0.6022 | 57 | 45.9 | 36.3 | 29.9 | 24.6 | 20.4 | 17.4 | – | 12.65 | 10.78
x1 = 0.6938 | 83.2 | 64.5 | 50.1 | – | 32.4 | 27 | – | 19 | 16.05 | 13.13
x1 = 0.8049 | 120.2 | 91.1 | 70 | 54.9 | 44 | 35.6 | – | – | 20.3 | 16.7
x1 = 0.9073 | 171 | 127.5 | 94.7 | 73.8 | 57.5 | 46.3 | 38 | 31 | 24.5 | –
x1 = 1 | 228 | 169 | – | – | 72.8 | 56.4 | 45.1 | 36.6 | 29.8 | –

CCO + COP(=O)([O-])OC.C[N+]1(CCO)CCCC1
x2 = 0
Conditions | viscosity [mPa·s]
293.15 K | 1.19
303.15 K | 0.98
308.15 K | 0.9
313.15 K | 0.82
318.15 K | 0.75
323.15 K | 0.69
328.15 K | 0.63
333.15 K | 0.58
338.15 K | 0.54

CCO + CC[N+]1(C)CCCC1.COP(=O)([O-])OC
x2 = 0
Conditions | viscosity [mPa·s]
293.15 K | 1.19
298.15 K | 1.08
303.15 K | 0.98
313.15 K | 0.82
323.15 K | 0.69
338.15 K | 0.54

Reference: a compilation of properties of binary mixtures (doi:10.1016/j.fluid.2021.113175)
